ChEMBL document CHEMBL5331054, “Antibacterial quaternary ammonium agents: Chemical diversity and biological mechanism” (Eur J Med Chem, 2022)

What was measured:
Escherichia coli [1] = test: Antibacterial activity against Escherichia coli assessed as log reduction in bacterial load measured after 5 mins; format: functional
Staphylococcus aureus [2] = test: Antibacterial activity against Staphylococcus aureus assessed as log reduction in bacterial load measured after 5 mins; format: functional
Staphylococcus aureus [3] = test: Antibacterial activity against Staphylococcus aureus NBRC 12732 assessed as reduction in bacterial growth by CLSI based broth microdilution method; format: functional
Escherichia coli [4] = test: Antibacterial activity against Escherichia coli ATCC 25922 assessed as reduction in bacterial growth incubated for 24 hrs by micro-dilution method; format: functional
Staphylococcus aureus [5] = test: Antibacterial activity against methicillin-sensitive Staphylococcus aureus assessed as reduction microbial growth; format: functional
Staphylococcus aureus [6] = test: Antibacterial activity against Staphylococcus aureus ATCC 700699 assessed as reduction in bacterial growth inhibition incubated for 24 hrs by microbroth-dilution method; format: functional
Staphylococcus aureus [7] = test: Antibiofilm activity against methicillin-resistant Staphylococcus aureus SH1000 assessed as reduction in bacterial growth; format: functional
Staphylococcus aureus [8] = test: Antimicrobial activity against community acquired methicillin-resistant Staphylococcus aureus SH1000; format: functional
Acinetobacter baumannii = test: Antibacterial activity against Acinetobacter baumannii assessed as inhibition of bacterial cell growth; format: functional
Escherichia coli [9] = test: Antibacterial activity against Escherichia coli assessed as reduction bacterial cell growth; format: functional
Pseudomonas aeruginosa [10] = test: Antibacterial activity against Pseudomonas aeruginosa assessed as inhibition of bacterial cell growth; format: functional
Klebsiella pneumoniae = test: Antibacterial activity against Klebsiella pneumoniae assessed as reduction in bacterial growth; format: functional
Staphylococcus aureus [11] = test: Antibacterial activity against methicillin-resistant Staphylococcus aureus assessed as bacterial growth inhibition; format: functional
Staphylococcus aureus [12] = test: Antibacterial activity against Staphylococcus aureus assessed as reduction in bacterial growth inhibition measured after 18 to 24 hrs by micro-broth dilution method; format: functional; settings: time 18-24 hrs
Pseudomonas aeruginosa [13] = test: Antibacterial activity against Pseudomonas aeruginosa assessed as bacterial growth inhibition incubated for 72 hrs by microdilution method; format: functional
Escherichia coli [14] = test: Antibacterial activity against Escherichia coli assessed as bacterial growth inhibition incubated for 72 hrs by microdilution method; format: functional
Staphylococcus aureus [15] = test: Antibacterial activity against Staphylococcus aureus assessed as bacterial growth inhibition incubated for 72 hrs by microdilution assay; format: functional, organism-based; settings: for MIC: Staphylococcus aureus, time 72 hrs
Staphylococcus aureus [16] = test: Antibacterial activity against methicillin-resistant Staphylococcus aureus assessed as log reduction in bacterial load measured after 60 mins; format: functional; settings: 1 h
Staphylococcus aureus [17] = test: Antibiofilm activity against Staphylococcus aureus assessed as reduction in bacterial growth by crystal violet based staining assay; format: functional
Enterococcus faecalis [18] = test: Antibiofilm activity against Enterococcus faecalis assessed as reduction in bacterial growth by crystal violet based staining assay; format: functional
Pseudomonas aeruginosa [19] = test: Antibiofilm activity against Pseudomonas aeruginosa assessed as reduction in bacterial growth by crystal violet based staining assay; format: functional
Escherichia coli [20] = test: Antibiofilm activity against Escherichia coli assessed as reduction in bacterial growth by crystal violet based staining assay; format: functional
Enterococcus faecalis [21] = test: Antibacterial activity against Enterococcus faecalis assessed as reduction in bacterial cell growth; format: functional
Staphylococcus aureus [22] = test: Antimicrobial activity against Staphylococcus aureus assessed as reduction in bacterial growth; format: functional
[23] = test system: Stenotrophomonas maltophilia; test: Antibacterial activity against Stenotrophomonas maltophilia assessed as inhibition of bacterial growth; format: functional
Staphylococcus aureus [24] = test: Antibacterial activity against Staphylococcus aureus ATCC 25923 assessed as bacterial growth inhibition incubated for 24 hrs by microdilution method; format: functional
[25] = test system: Staphylococcus epidermidis; test: Antibacterial activity against Staphylococcus epidermidis ATCC 12228 assessed as bacterial growth inhibition incubated for 24 hrs by microdilution method; format: functional
Bacillus cereus = test: Antibacterial activity against Bacillus cereus assessed as reduction in microbial growth after 18 hrs by MTT based broth dilution method; format: functional
Pseudomonas aeruginosa [26] = test: Antibacterial activity against Pseudomonas aeruginosa ATCC 9027 assessed as reduction in bacterial growth incubated for 24 hrs by micro-dilution method; format: functional
Staphylococcus aureus [27] = test: Antibacterial activity against Staphylococcus aureus ATCC 25923 assessed as reduction in bacterial growth incubated for 24 hrs by micro-dilution method; format: functional
Pseudomonas aeruginosa [28] = test: Antibacterial activity against Pseudomonas aeruginosa NCTC 6749 assessed as reduction in bacterial growth incubated for 24 hrs by micro-dilution method; format: functional
Staphylococcus aureus [29] = test: Antibacterial activity against Staphylococcus aureus ATCC 4163 assessed as reduction in bacterial growth incubated for 24 hrs by micro-dilution method; format: functional
Vibrio parahaemolyticus = test: Antibacterial activity against Vibrio parahaemolyticus ATCC 17802 assessed as reduction in bacterial growth incubated for 24 hrs by micro-dilution method; format: functional
Staphylococcus aureus [30] = test: Antibacterial activity against Staphylococcus aureus […] assessed as reduction in bacterial growth inhibition measured after 24 hrs; format: functional
Enterococcus faecalis [31] = test: Antibacterial activity against Enterococcus faecalis assessed as bacterial growth inhibition incubated for 72 hrs by microdilution method; format: functional
Streptococcus pyogenes = test: Antibacterial activity against Streptococcus pyogenes ATCC 19615 assessed as reduction in bacterial growth incubated for 18 hrs by micro-broth dilution assay; format: functional
Staphylococcus aureus [32] = test: Antibacterial activity against methicillin- resistant Staphylococcus aureus assessed as bacterial growth inhibition incubated for 24 hrs; format: functional
[33] = Pseudomonas aeruginosa, 72 h, read-out: MIC
[34] = Escherichia coli, 72 h, read-out: MIC

CC1(C)C(=O)N(CCCCCCCCCCCC[n+]2ccccc2)C(=O)N1Cl.[Cl-]
log(activity) (Escherichia coli [1]): 2.16
log(activity) (Staphylococcus aureus [2]): 6.62

C[N+](CCO)(CCO)CCCCCCCCCCCCSc1nnc(-c2ccccc2)o1.[Br-]
MIC (Staphylococcus aureus [3]): 6.25 µg/mL

CC1(C)[C@@H]2CC[C@H](CC[N+](C)(C)CC[C@H]3CC[C@@H]4C[C@H]3C4(C)C)[C@H]1C2.[I-]
MIC (Escherichia coli [4]): 5 µg/mL

CCCCCCCCCCCC[N+](C)(C)CCC[N+](C)(C)CCC[N+](C)(C)CCCCCCCCCCCC
MIC (Staphylococcus aureus [5]): 0.5 µM

CCCCCCCCCCCCCCCCCC[N+](C)(C)Cc1cnc(C)c(OC(C)=O)c1C.[Cl-]
MIC (Staphylococcus aureus [6]): 1 µg/mL

C=CC[N+](CCC[N+](C)(C)CCCCCCCCCC)(CCC[N+](C)(C)CCCCCCCCCC)CCC[N+](C)(C)CCCCCCCCCC.[Br-].[Br-].[Br-].[Br-]
MBEC (Staphylococcus aureus [7]): 25 µM
MIC (Staphylococcus aureus [8]): 0.25 µM

CCCCCCCCCCC[n+]1cccc(Oc2cccc(Oc3ccc[n+](CCCCCCCCCCC)c3)c2)c1.[Br-].[Br-]
MIC (Acinetobacter baumannii): < 0.25 µg/mL
MIC (Escherichia coli [9]): < 0.25 µg/mL
MIC (Pseudomonas aeruginosa [10]): < 0.25 µg/mL
MIC (Klebsiella pneumoniae): < 0.25 µg/mL
MIC (Staphylococcus aureus [11]): < 0.25 µg/mL

C[N+](C)(C)CCNC(=O)[C@H](Cc1c[nH]c2ccccc12)NC(=O)c1cc(Cl)ccc1NC(=O)c1ccc2ccccc2c1
MIC (Staphylococcus aureus [12]): 15.6 µM

CCCCCCCCCCCCCCCC[N+](C)(C)c1ccc(C(c2ccccc2)c2ccc([N+](C)(C)C)cc2)cc1.[I-].[I-] (configuration not stated)
MIC (Staphylococcus aureus [11]): < 0.25 µg/mL

CCCCCCCCCCCCOC(=O)C[N+](C)(C)CCC[N+](C)(C)CC(=O)OCCCCCCCCCCCC.[Cl-].[Cl-]
MIC (Pseudomonas aeruginosa [13]): 40 µM
MIC (Escherichia coli [14]): 200 µM
IC50 (Staphylococcus aureus [15]): 120 µM

CC1(C)C(=O)N(CCC[N+](C)(C)CC[N+](C)(C)C)C(=O)N1Cl.[Cl-].[Cl-]
log(activity) (Staphylococcus aureus [16]): 2.36

CCCCCCCCCCCC[N+](C)(C)CC[N+](C)(C)CC[N+](C)(C)CCCCCCCCCCCC
MIC (Staphylococcus aureus [17]): < 0.25 µM
MIC (Enterococcus faecalis [18]): < 0.25 µM
MIC (Pseudomonas aeruginosa [19]): 1 µM
MIC (Escherichia coli [20]): 0.5 µM

CCCCCCCCCCCC[N+](C)(C)CCOc1ccc(OCC[N+](C)(C)CCCCCCCCCCCC)cc1.[Br-].[Br-]
MIC (Enterococcus faecalis [21]): 1 µg/mL
MIC (Staphylococcus aureus [22]): 1 µg/mL
MIC [23]: 2 µg/mL

CCCCCCCCCCCCCCOC(=O)[C@H](Cc1ccccc1)[N+](C)(CC)CC
MIC (Staphylococcus aureus [24]): 3.6 µM
MIC [25]: 4.5 µM
MIC (Bacillus cereus): 5.4 µM

CC1(C)[C@@H]2CC[C@H](CC[N+](C)(C)CC[C@H]3CC[C@@H]4C[C@H]3C4(C)C)[C@H]1C2.[Cl-]
MIC (Escherichia coli [4]): 0.625 µg/mL
MIC (Pseudomonas aeruginosa [26]): 0.625 µg/mL
MIC (Staphylococcus aureus [27]): 0.625 µg/mL

CCCCCCCCCCCC[N+](C)(C)CCNC(=O)C12CC3CC(C1)CC(C(=O)NCC[N+](C)(C)CCCCCCCCCCCC)(C3)C2
MIC (Escherichia coli [4]): 9.4 µM
MIC (Pseudomonas aeruginosa [28]): 2.3 µM
MIC (Staphylococcus aureus [29]): 2.3 µM
MIC (Vibrio parahaemolyticus): 0.1 µM

CCOC(=O)c1c[n+](C(C)C)c2cc3c(cc2c1Nc1ccc(OCc2ccccc2)cc1)OCO3
MIC (Staphylococcus aureus [30]): 3.12 µM

C[N+](C)(C)CC[N+](C)(C)C
MIC (Pseudomonas aeruginosa [13]; [33]): > 500 µM
MIC (Escherichia coli [14]; [34]): > 500 µM
MIC (Enterococcus faecalis [31]): > 500 µM
MIC (Staphylococcus aureus [15]): > 500 µM

CCCCCCCCCCC[n+]1cccc(Oc2ccc(Oc3ccc[n+](CCCCCCCCCCC)c3)cc2)c1.[Br-].[Br-]
MIC (Staphylococcus aureus [11]): < 0.25 µg/mL

CCCCCCCCCCCCCCC[n+]1ccn(Cc2ccccc2)c1.[Br-]
MIC (Streptococcus pyogenes): 0.03 µg/mL

CCCCCCCCCC[N+](C)(C)CCOc1ccc(OCC[N+](C)(C)CCCCCCCCCC)cc1.[Br-].[Br-]
MIC (Enterococcus faecalis [21]): 0.25 µg/mL
MIC (Staphylococcus aureus [22]): 0.5 µg/mL
MIC [23]: 0.5 µg/mL

CCCCCCCCCC[N+](C)(C)CCCCCCCCCC [DIDECYLDIMETHYLAMMONIUM CHLORIDE]
MIC (Staphylococcus aureus [11]): 4 µM
MIC (Staphylococcus aureus [32]): 1 µM

C[N+](C)(C)CCCCC[N+](C)(C)C [PENTAMETHONIUM BROMIDE]
MIC (Pseudomonas aeruginosa [13]; [33]): > 500 µM
MIC (Escherichia coli [14]; [34]): > 500 µM
MIC (Enterococcus faecalis [31]): > 500 µM
MIC (Staphylococcus aureus [15]): > 500 µM
